In patent US20150290200A1, “INTRACELLULAR KINASE INHIBITORS” (Pharmacyclics Inc., priority 2006, published 2015):
Like-named read-outs stand apart in the source and are kept apart here.

Tests used:
LCK kinase domain = biological target: T1, LCK kinase domain (Homo sapiens, UniProt P06239); experiment: In vitro kinase assay (HITHUNTER), LCK; assay type: biochemical; settings: Table 2
T1 construct: The kinase domains of BTK, LCK and ERK were expressed as recombinant purified proteins; made in house
T1 sequence (P06239 245-498 limits assumed, species assumed): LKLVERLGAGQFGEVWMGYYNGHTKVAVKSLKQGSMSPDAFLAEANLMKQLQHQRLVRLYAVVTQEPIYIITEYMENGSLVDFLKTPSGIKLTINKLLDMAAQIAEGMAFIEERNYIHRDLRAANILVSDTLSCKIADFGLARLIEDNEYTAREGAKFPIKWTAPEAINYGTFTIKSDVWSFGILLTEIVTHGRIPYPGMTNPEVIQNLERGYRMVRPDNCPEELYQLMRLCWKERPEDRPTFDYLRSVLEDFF
Text: (§1) Similarly, commercially available reagents such as HITHUNTER™ were used to evaluate the effect of compounds on the activity of additional kinases. The kinase domains of BTK, LCK and ERK were expressed as recombinant purified proteins were used for these studies.

BTK kinase domain = biological target: T2, BTK kinase domain (Homo sapiens, UniProt Q06187); experiment: In vitro kinase assay (HITHUNTER), BTK; assay type: biochemical
T2 construct: The kinase domains of BTK, LCK and ERK were expressed as recombinant purified proteins; made in house
T2 sequence (Q06187 402-655 limits assumed): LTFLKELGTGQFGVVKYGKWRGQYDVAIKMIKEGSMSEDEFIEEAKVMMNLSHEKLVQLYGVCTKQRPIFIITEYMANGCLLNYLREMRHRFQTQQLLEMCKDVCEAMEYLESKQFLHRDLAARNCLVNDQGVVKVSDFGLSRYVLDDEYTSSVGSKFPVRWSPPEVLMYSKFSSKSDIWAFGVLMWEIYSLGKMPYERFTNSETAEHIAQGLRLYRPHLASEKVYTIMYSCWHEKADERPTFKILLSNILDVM
Text: as §1

ITK kinase domain = biological target: T3, ITK kinase domain (Homo sapiens, UniProt Q08881); experiment: In vitro kinase assay (HITHUNTER enzyme fragment complementation), ITK; assay type: biochemical
T3 construct: N-terminally His-tagged ITK kinase domain (amino acids 352-617); His (N); made in house
T3 sequence (Q08881 352-617): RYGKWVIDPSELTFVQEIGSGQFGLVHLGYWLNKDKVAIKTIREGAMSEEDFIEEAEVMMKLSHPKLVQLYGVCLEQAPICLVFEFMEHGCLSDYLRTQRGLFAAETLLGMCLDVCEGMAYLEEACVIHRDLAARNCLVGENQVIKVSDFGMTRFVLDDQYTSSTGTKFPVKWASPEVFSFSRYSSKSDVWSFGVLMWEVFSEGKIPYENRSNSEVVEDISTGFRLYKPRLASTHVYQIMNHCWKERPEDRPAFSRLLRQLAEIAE
Method: Compounds were screened using the HITHUNTER™ enzyme fragment complementation method (Discoverx). Briefly, a recombinantly produced, N-terminally His-tagged ITK kinase domain (amino acids 352-617) was incubated with various concentrations of individual compounds. ATP and substrate were added, and the kinase reaction was allowed to proceed for 2-16 hours. Commercially available detection reagents were added and allowed to react for 2-4 hours. The reaction was evaluated by luminescence. Initial results were confirmed using full-length recombinant ITK protein.
(§2) In order to confirm the mechanism by which compounds depicted herein interact with the kinase domain of Tec and EGFR kinases, we created a point mutant of the ITK kinase domain, whereby the key amino acid, namely C442 was mutated to alanine. The protein was expressed in a commercial baculovirus expression system using the manufacturer's general protocol (Invitrogen, pBlueBac). Protein was expressed and purified using standard techniques. […] While the activity of WT-ITK was inhibited by compounds depicted in this application, the same compounds had no activity towards the C442A mutant kinase domain.

[1] = test system: T cell leukemia/lymphoma cells; experiment: Mouse in vivo tumor model, peritoneal lavage and FACS analysis; design: species or system NOD/SCID mice; settings: ip, intraperitoneal, relative to mock group treated with vehicle, read-out: % inhibition tumor growth
Method: Several representative compounds were evaluated for efficacy in mouse in vivo tumor models. NOD/SCID mice were implanted intraperitoneally with T cell leukemia/lymphoma cells. One group was treated with vehicle alone (mock treatment) while the other groups were treated with several small molecule inhibitors via intraperitoneal route. Tumor growth was evaluated by peritoneal lavage and FACS analysis. Table 6 summarizes percent inhibition of tumor growth relative to a mock group treated with vehicle alone.

C442A-ITK kinase domain = biological target: T4, C442A-ITK kinase domain (Homo sapiens, UniProt Q08881, C442A); experiment: In vitro kinase assay, C442A point mutant of ITK kinase domain; assay type: biochemical; settings: Table 8
T4 construct: we created a point mutant of the ITK kinase domain; made in house; host or cells: baculovirus expression system (Invitrogen, pBlueBac)
T4 sequence (Q08881 363-615 C442A limits assumed): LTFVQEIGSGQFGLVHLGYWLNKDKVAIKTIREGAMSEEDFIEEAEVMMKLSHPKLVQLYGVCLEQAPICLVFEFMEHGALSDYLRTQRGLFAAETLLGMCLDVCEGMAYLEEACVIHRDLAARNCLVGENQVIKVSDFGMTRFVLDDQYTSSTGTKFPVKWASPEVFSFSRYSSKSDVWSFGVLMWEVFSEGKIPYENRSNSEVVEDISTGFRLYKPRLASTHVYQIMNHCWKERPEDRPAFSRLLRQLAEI
Text: as §2

[2] = Table 8, wild type ITK kinase domain, read-out: IC50 wild-type ITK

O=C(CCN1CCOCC1)c1ccc(F)cc1C(F)(F)F
IC50 LCK (LCK kinase domain): NO IC50 | IC50 (BTK kinase domain; Table 2): 1.22 µM | IC50 (ITK kinase domain; Table 2, read-out: IC50 ITK): 0.468 µM

Cc1cccc(C(=O)CCN2CCOCC2)c1
IC50 (LCK kinase domain): 24.4 µM | IC50 (BTK kinase domain; Table 2): 3.07 µM | IC50 (ITK kinase domain; Table 2, read-out: IC50 ITK): 0.56 µM

O=C(CCN1CCOCC1)c1ccccc1C(F)(F)F
IC50 LCK (LCK kinase domain): NO IC50 | IC50 (BTK kinase domain; Table 2): 1.02 µM | IC50 (ITK kinase domain; Table 2, read-out: IC50 ITK): 0.569 µM

Cc1ccccc1C(=O)CCN1CCOCC1
IC50 LCK (LCK kinase domain): NO IC50 | IC50 (BTK kinase domain; Table 2): 2.31 µM | IC50 (ITK kinase domain; Table 2, read-out: IC50 ITK): 0.611 µM

O=C(CCN1CCOCC1)c1cc(F)ccc1Cl
IC50 (LCK kinase domain): 29.5 µM | IC50 (BTK kinase domain; Table 2): 0.993 µM | IC50 (ITK kinase domain; Table 2, read-out: IC50 ITK): 0.935 µM

O=C(CCN1CCOCC1)c1cc(F)ccc1F
IC50 LCK (LCK kinase domain): NO IC50 | IC50 (BTK kinase domain; Table 2): 2.58 µM | IC50 (ITK kinase domain; Table 2, read-out: IC50 ITK): 0.874 µM

CCOc1ccccc1C(=O)CCN1CCOCC1
IC50 (LCK kinase domain): 705 µM | IC50 (BTK kinase domain; Table 2): 0.556 µM | IC50 (ITK kinase domain; Table 2, read-out: IC50 ITK): 1.28 µM

O=C(CCN1CCOCC1)c1ccc(N2CCOCC2)cc1
IC50 (LCK kinase domain): 27.1 µM | IC50 (BTK kinase domain; Table 2): 4.14 µM | IC50 (ITK kinase domain; Table 2, read-out: IC50 ITK): 1.41 µM

CN(CCC(=O)C1=CC2NCC(=O)OC2C=C1)Cc1ccc(F)cc1 (stereo not drawn)
inhibition in vivo at 80 mg/kg [1]: 90 to 99%

CN(C)C1CCN(CCC(=O)C2=CC3NCC(=O)OC3C=C2)CC1 (stereo not drawn)
inhibition in vivo at 80 mg/kg [1]: 99%

CN(C)C1CCN(CCC(=O)c2ccc3c(c2)NC(=O)CO3)C1 (stereo not drawn)
inhibition in vivo at 100 mg/kg [1]: 99%

O=C(CCN1CCOCC1)c1ccc(-c2cccnc2)cc1
inhibition in vivo at 100 mg/kg [1]: 99%

COc1ccc(C(=O)CCN2CCC(N(C)C)CC2)cc1OC
inhibition in vivo at 80 mg/kg [1]: 81 to 95%

O=C1COc2ccc(C(=O)CCN3CCOCC3)cc2N1 [drawing 120]
IC50 (LCK kinase domain): 2.89 µM | IC50 (BTK kinase domain; Table 2): 0.276 µM | IC50 (ITK kinase domain; Table 2, read-out: IC50 ITK): 0.04 µM

O=C(CCN1CCOCC1)c1ccc(F)cc1 [drawing 122]
IC50 (LCK kinase domain): 27.7 µM | IC50 (BTK kinase domain; Table 2): 1.41 µM | IC50 (ITK kinase domain; Table 2, read-out: IC50 ITK): 0.013 µM

COc1ccc(C(=O)CCN2CCOCC2)cc1OC [drawing 124]
IC50 (LCK kinase domain): 23.9 µM | IC50 (BTK kinase domain; Table 2): 1.84 µM | IC50 (ITK kinase domain; Table 2, read-out: IC50 ITK): 0.014 µM

O=C(CCN1CCOCC1)c1ccc2ccccc2c1 [drawing 129]
IC50 (LCK kinase domain): 20 µM | IC50 (BTK kinase domain; Table 2): 0.039 µM | IC50 (ITK kinase domain; Table 2, read-out: IC50 ITK): 0.036 µM

O=C(CCN1CCOCC1)c1ccccc1Cl [drawing 133]
IC50 (LCK kinase domain): 28.1 µM

O=C(CCN1CCOCC1)c1ccccc1Cl [drawing 149]
IC50 LCK (LCK kinase domain): NO IC50

COc1cc2c(cc1OC)CN(CCC(=O)c1ccc3ccccc3c1)CC2 [drawing 212]
IC50 (BTK kinase domain; Table 5): 0.115 µM | IC50 (ITK kinase domain; Table 5, read-out: IC50 ITK): 0.0072 µM

CN(C)C1CCN(CCC(=O)c2ccc3ccccc3c2)C1 (stereo not drawn) [drawing 214]
IC50 (BTK kinase domain; Table 5): 0.0492 µM | IC50 (ITK kinase domain; Table 5, read-out: IC50 ITK): 0.0069 µM

CN(C)C1CCN(CCC(=O)c2ccc3ccccc3c2)C1 (stereo not drawn) [drawing 240]
inhibition in vivo at 100 mg/kg [1]: 70 to 90%

O=C(CCN1CCOCC1)c1ccc2ccccc2c1 [drawing 241]
inhibition in vivo at 100 mg/kg [1]: 85 to 98%

COc1ccc(C(=O)CCN2CCOCC2)cc1OC [drawing 242]
inhibition in vivo at 80 mg/kg [1]: 92 to 99%

O=C(CCN1CCOCC1)c1ccc(F)cc1 [drawing 243]
inhibition in vivo at 80 mg/kg [1]: 50 to 80%

O=C(CCN1CCOCC1)c1ccc2occc2c1 [drawing 246]
inhibition in vivo at 80 mg/kg [1]: 67 to 81%

O=C(CCN1CCOCC1)c1cc2ccccc2cn1 [drawing 247]
inhibition in vivo at 80 mg/kg [1]: 92 to 99%

COc1cc2c(cc1OC)CN(CCC(=O)c1ccc3c(c1)NC(=O)CO3)CC2 [drawing 249]
inhibition in vivo at 80 mg/kg [1]: 97 to 99%

NC(=O)c1ccc2cc(C(=O)CCN3CCOCC3)ccc2c1 [drawing 250]
inhibition in vivo at 30 mg/kg ([1]; 30 mg/kg): 99%

O=C1COc2ccc(C(=O)CCN3CCOCC3)cc2N1 [drawing 253]
inhibition in vivo at 20 mg/kg ([1]; 20 mg/kg): 40%

CN(C)C1CCN(CCC(=O)c2ccc3ccccc3c2)C1 (stereo not drawn) [drawing 257]
IC50 (C442A-ITK kinase domain): > 10 µM | IC50 (ITK kinase domain; [2]): 0.011 µM

O=C(CCN1CCOCC1)c1ccc(F)cc1 [drawing 258]
IC50 (C442A-ITK kinase domain): > 10 µM | IC50 (ITK kinase domain; [2]): 0.0496 µM
